Each block holds one compound with its values, some of them ahead of it.
What was measured:
zebrafish embryos = assay: Zebrafish embryo pigmentation (whitening effect); assay type: in vivo, Danio rerio; details: 30 µg/mL, 72 hpf, control = 100% pigmentation
Experimental: Adult zebrafish specimens (male and female) were maintained in a temperature-controlled aquarium (28.5 °C) with light-dark cycles and regularly fed with Artemia salina larvae. After natural deposition, the laid eggs were collected and incubated at 28.5 °C. After 24 h, all the eggs were observed under a stereomicroscope (SMZ-171 Series, Motic, Hong Kong, China) to select the fertilized ones. The vitality test and whitening effect were evaluated in vivo on zebrafish embryos according to the following method. […] Control embryos were incubated with embryo water (negative control). After 48 h of incubation at 28 °C (72 hpf), the effects of the treatment were observed using a stereomicroscope (SMZ-171 Series, Motic) equipped with a digital camera (Moticam® 5 plus) for image acquisition. The abnormal phenotypes and mortality of each treated group were documented. […] The images were converted to gray scale, and the pixel measurements analyzer program was used to count the area of the zebrafish image pigmentation. The quantification of pigmentation was expressed as a percentage change compared to the control group, which was considered to be 100%. All experiments were performed in compliance with the European Directive 2010/63/EU and following the ethical guidelines described by the National Institute of Health Guide for the Care and Use of Laboratory Animals.

[1] = DPPH radical scavenging activity; details: mean ± SD, n = 3
Experimental: DPPH scavenging activity was measured using the method of Xiong et al., albeit with minor modifications. […] After shaking, the mixture was stored in the dark for 30 min at room temperature, and, finally, the absorbance was measured at 517 nm. Ascorbic acid served as the positive control. The percentage of DPPH scavenging activity was calculated using the following formula: Inhibition(%)=(C-S)/C∗100 where C = the absorbance of the control, and S = the absorbance of the extract.

[2] = TEAC test (ABTS radical scavenging activity); details: mean ± SD, n = 3
Experimental: The free radical scavenging activities of extracts were also determined via the TEAC test using ABTS radical following the method reported by Wang et al.. […] Trolox was used as a positive control. The percentage of ABTS free radical scavenging activity was calculated using the following formula: Inhibition(%)=(C−S)/C∗100 Data were expressed in terms of the decrease in ABTS scavenging activity by 50%.

α-amylase = tested on: α-amylase; design: method as in PMID 36115306; details: cited from earlier work
TYR = tested on: TYR; design: method as in PMID 30458808, PMID 26059994; details: cited from earlier work
α-glucosidase = details: cited from earlier work

Structure (SMILES): NC(=S)Nc1ccccc1 [1-Phenyl-2-thiourea (PTU), 1-Phenyl-2-thiourea]
embryo pigmentation, % vs. control (zebrafish embryos): 36.00%

DPPH (IC50 µg/mL) [1]: 16.95 ± 1.20 µg/mL
Structure (SMILES): O=C1O[C@H]([C@@H](O)CO)C(O)=C1O [Ascorbic acid]

TEAC (IC50 µg/mL) [2]: 13.08 ± 0.02 µg/mL
Structure (SMILES): Cc1c(C)c2c(c(C)c1O)CCC(C)(C(=O)O)O2 (stereo not shown) [Trolox]

Structure (SMILES): O=c1c(O[C@@H]2O[C@H](CO)[C@H](O)[C@H](O)[C@H]2O)c(-c2ccc(O)c(O)c2)oc2cc(O)cc(O)c12 [hyperoside, Hyperoside]
manner of α-amylase inhibition (α-amylase): competitive | TYR inhibition (TYR): effective TYR inhibitors

Structure (SMILES): O=c1cc(-c2ccc(O)cc2)oc2c([C@@H]3O[C@H](CO)[C@@H](O)[C@H](O)[C@H]3O)c(O)cc(O)c12 [vitexin, Vitexin]
mechanism of action on α-glucosidase (α-glucosidase): uncompetitive | TYR inhibition (TYR): effective TYR inhibitors
